“Also recorded” adds a separate entry of the source. Like-named read-outs stand apart in the source and are kept apart here. Bridge positions count the residues as written; N and C are the ends. Square brackets hold non-standard residues; d marks the D form. Peptide text beside a SMILES is read from it. * marks the point of attachment. X1 = CC[C@H](C)CCCCC(=O)*; Dab = NCC[C@H](N)C(=O)O
How the values were obtained:
lipid A / outer membrane = test system: lipid A / outer membrane; parameters: method as in PMID 6414364, PMID 10956216; conditions: ref [20],[21]; cited from earlier work
E. coli WT+rifampicin = assay: Rifampicin potentiation / outer membrane permeability, wild-type E. coli; format: cell-based
Protocol: (§1) Bacterial strains and plasmids are listed in SI Table S5. LB growth media was prepared according to manufacturer’s instructions and supplemented with 0.2% arabinose and carbenicillin (50 μg/mL) for the strains containing pBAD24-mcr1 plasmid. Cultures were started by inoculating 3 ml LB with 1–2 colonies from fresh overnight plates and grown at 37 °C until in log phase. Modified minimal inhibitory concentration (MIC) assays were performed in 96-well round bottom polystyrene plates (Corning) with a final volume of 100 µl in LB supplemented with tween-80 at 0.0005%. […] Polymyxin B sulfate (TCI Co. Ltd), polymyxin B nonapeptide (PMBN) (Sigma), and brevicidine (Genentech) were diluted directly in the assay plates. Bacteria were diluted in LB with tween-80 0.0005% and added to a final OD600 of 0.0005. Growth was measured via OD600 on a SpectraMax M5 plate reader after overnight static growth at 37 °C with humidity.

[1] = test system: resistant-OMVs (E. coli PmrA^G53E); assay: Single-cycle kinetic SPR binding to immobilized resistant-OMVs; conditions: serial doubling injections, C1 chip
Protocol: (§2) Polymyxin B was covalently attached to a C1 chip (Series S Sensor Chip C1, Cytiva) using an amine coupling kit (Cytiva). Cartoon in Fig. 1A created with BioRender (biorender.com). Briefly, equal amounts of reagents N-hydroxysuccinimide and 1-ethyl-3-(3-dimethylaminopropyl) carbodiimide hydrochloride were mixed as per manufacturer’s instructions and immediately added to the gold chip surface for 2 min, washed with distilled deionized water, and dried. Sufficient polymyxin B (1 mM in 1 M HEPES buffer, pH 8) was added to cover the chip surface, incubated at room temperature for 1 h, washed as before, and then incubated with 1 M ethanolamine hydrochloride-NaOH, pH 8.5, for 1 min. The chip surface was washed with water, dried as previously described, immediately loaded into a Biacore S200, and primed with running buffer (described below) to equilibrate the system. C1 chips were used for multiple runs and discarded upon removal from the Biacore S200.
SCK C1-chip SPR experiments were performed in running buffer (Dulbecco’s phosphate-buffered salt solution 1x without calcium or magnesium (Fisher Scientific), pH 7.4, with 0.0005% tween-80 (Sigma) passed through a 0.2 µm filter) unless otherwise indicated. Inclusion of tween-80 prevented loss of polymyxin to the plastics[34] (also see Supplementary Information Methods). For experiments with brevicidine, which was suspended in DMSO, 0.125% DMSO was included in the running buffer. OMVs were diluted from frozen stocks to approximately 20–30 µg/ml protein in the OMV buffer. Capture of OMVs was performed at a low flow rate ([…]) for 300 s over the test channel(s) followed by a 300 s stabilization period. All subsequent steps were at a flow rate of 40 µl/ml. For single cycle kinetics, two-fold dilutions were injected over the channel(s) loaded with OMVs and a reference channel without OMVs for 30 s contact and 480 s dissociation. […]

wt-OMVs = assay: Single-cycle kinetic SPR binding to immobilized wt-OMVs; parameters: species or system E. coli; conditions: for SPR binding in presence of excess Mg^2+: 32 mM Mg^2+; for SPR binding profile: serial doubling injections, C1 chip
Protocol: as §2
SCK C1-chip SPR experiments were performed in running buffer (Dulbecco’s phosphate-buffered salt solution 1x without calcium or magnesium (Fisher Scientific), pH 7.4, with 0.0005% tween-80 (Sigma) passed through a 0.2 µm filter) unless otherwise indicated. Inclusion of tween-80 prevented loss of polymyxin to the plastics[34] (also see Supplementary Information Methods). For experiments with brevicidine, which was suspended in DMSO, 0.125% DMSO was included in the running buffer. OMVs were diluted from frozen stocks to approximately 20–30 µg/ml protein in the OMV buffer. Capture of OMVs was performed at a low flow rate ([…]) for 300 s over the test channel(s) followed by a 300 s stabilization period. All subsequent steps were at a flow rate of […]. For single cycle kinetics, two-fold dilutions were injected over the channel(s) loaded with OMVs and a reference channel without OMVs for 30 s contact and 480 s dissociation. To regenerate chips, 0.5% SDS (desorb 1, Cytiva) was injected into all channels for 60 s at […] twice, with an extra buffer wash and four carry-over control steps to prevent residual SDS from disrupting the following cycle.
All single-cycle kinetic SPR traces shown were double-referenced (unless indicated) within the Biacore S200 Evaluation Software 1.0, exported as a.txt file, and imported (decimated) into GraphPad Prism (version 9.3.1 for Mac, GraphPad Software, San Diego, CA). For clarity, in some cases individual outlier data points (at buffer transitions) were removed when this would not change the overall data or conclusions.

E. coli WT = format: cell-based
Protocol: as §1

[2] = test system: polymyxin B-resistant E. coli cells expressing mcr-1; assay: Whole cell SPR, E. coli expressing mcr-1; format: binding
Protocol: (§3) Bacterial strains were grown in LB or LB with 0.2% arabinose and carbenicillin (50 μg/mL) to log phase (OD600 approximately 0.4–0.6), centrifuged for 10 min at 2500 × g (3500 rpm using a tabletop centrifuge), and re-suspended in PBS to a final OD600 of approximately 5. SPR on whole bacterial cells was performed and analyzed as described for OMVs on C1 chip, but with an additional carry-over wash prior to the capture. Regeneration of the chip after whole cell binding also required additional steps ([…] flow rate): (1) PBS supplemented with 32 mM MgCl2 for 120 s, (2) 2.5 M NaCl for 30 s, (3) 0.5% SDS (Desorb 1, Cytiva) for 60 s with carry over controls between.

S. aureus WT = format: cell-based
Protocol: as §1

[3] = test system: polymyxin B-resistant E. coli PmrA^G53E cells; assay: Whole cell SPR, E. coli PmrA^G53E; format: binding
Protocol: as §3

| Structure (SMILES) | antibacterial activity and lipid A binding (lipid A / outer membrane) | outer membrane permeabilization / rifampicin potentiation (E. coli WT+rifampicin) | MIC in presence of rifampicin (E. coli WT+rifampicin; rifampicin 1.56 µM, LB + 0.0005% tween-80, overnight 37 °C) [nM] | SPR binding profile [1] | SPR binding in presence of excess Mg^2+ (wt-OMVs) | SPR binding profile (wt-OMVs) | antibacterial activity (E. coli WT) | MIC (E. coli WT; LB + 0.0005% tween-80, OD600 0.0005, overnight static growth 37 °C, complete growth inhibition) [µM] | SPR binding profile [2] | MIC in presence of rifampicin (E. coli WT+rifampicin) [nM] | effect of EDTA on SPR binding (wt-OMVs; EDTA 4 mM, maximum 625 nM, n=3) | MIC (S. aureus WT; LB + 0.0005% tween-80, overnight 37 °C) [µM] | antibacterial activity (S. aureus WT; highest tested concentration) | SPR binding profile [3] |
| --- | --- | --- | --- | --- | --- | --- | --- | --- | --- | --- | --- | --- | --- | --- |
| CC(C)C[C@@H]1NC(=O)[C@@H](Cc2ccccc2)NC(=O)[C@H](CCN)NC(=O)[C@@H](NC(=O)[C@H](CCN)NC(=O)[C@@H](N)[C@@H](C)O)CCNC(=O)[C@H]([C@@H](C)O)NC(=O)[C@H](CCN)NC(=O)[C@H](CCN)NC1=O [PMBN] (H-T[Dab][Dab][Dab][dF]L[Dab][Dab]T; lactam 3-C) | do not possess antibacterial activity, nonetheless bind to lipid A and permeabilize the outer membrane | still permeabilizes the outer membrane to rifampicin; also recorded: can still permeabilize the outer membrane | 78 | exhibited only weak, saw-tooth binding | eliminated | exhibited only weak, saw-tooth binding; also recorded: exclusively produces rapidly reversible binding | lacks the antibacterial activity of polymyxin B | >40 | – | – | – | – | – | – |
| CC[C@H](C)CCCCC(=O)N[C@@H](CCN)C(=O)N[C@H](C(=O)N[C@@H](CCN)C(=O)N[C@H]1CCNC(=O)[C@H]([C@@H](C)O)NC(=O)[C@H](CCN)NC(=O)[C@H](CCN)NC(=O)[C@H](CC(C)C)NC(=O)[C@@H](Cc2ccccc2)NC(=O)[C@H](CCN)NC1=O)[C@@H](C)O [Polymyxin B] (X1-[Dab]T[Dab][Dab][Dab][dF]L[Dab][Dab]T; lactam 4-C (inferred); N-terminus assumed) | – | – | – | exhibited only the weak, saw-tooth binding | reduced to a weak transient saw-tooth profile without stably bound polymyxin B | dominated by the accumulation of tightly bound polymyxin B and a superimposed saw-tooth profile associated with transient binding | – | – | same polymyxin B binding profiles were observed | <0.02 | had no effect on polymyxin binding | >40 | no activity at the highest tested concentration | same polymyxin B binding profiles were observed |

Reference: paper PMC11148078, “Potent activity of polymyxin B is associated with long-lived super-stoichiometric accumulation mediated by weak-affinity binding to lipid A” (Nature Communications, 2024)
